Results reported in ChEMBL document CHEMBL1671733, “Clinical evaluation of a dried blood spot assay for atazanavir” (Antimicrob Agents Chemother, 2010).

Key:
Type in all cases: ADME, organism-based
[1] = Plasma concentration in HIV infected patient at 300 mg qd measured after 16.60 hrs by plasma based assay using HPLC; conditions: human
[2] = Plasma concentration in HIV infected patient at 400 mg qd measured after 13.06 hrs by plasma based assay using HPLC; conditions: human
[3] = Cmin in HIV infected patient at 400 mg qd measured after 13.06 hrs by plasma based assay using HPLC; conditions: human, read-out: Cmin
[4] = Cmin in HIV infected patient at 300 mg qd measured after 16.60 hrs by plasma based assay using HPLC; conditions: human, read-out: Cmin
[5] = Cmax in HIV infected patient at 400 mg qd measured after 13.06 hrs by plasma based assay using HPLC; set-up: dose 400 mg; conditions: human
[6] = Cmax in HIV infected patient at 300 mg qd measured after 16.60 hrs by plasma based assay using HPLC; set-up: dose 300 mg; conditions: human
Homo sapiens [7] = species on record: Homo sapiens; test: Plasma concentration in HIV infected patient with HIV RNA of <50 copies/ml by dried blood spot assay using reversed-phase ultrahigh-performance liquid chromatography; conditions: in vivo
Homo sapiens [8] = species on record: Homo sapiens; test: Plasma concentration in HIV infected patient with HIV RNA of >50 copies/ml by dried blood spot assay using reversed-phase ultrahigh-performance liquid chromatography; conditions: in vivo

concentration at 16.6 h [1]: 1630 ng/mL
concentration at 13.06 h [2]: 465 ng/mL
concentration at 13.06 h [3]: 342 ng/mL
concentration at 16.6 h [4]: 196 ng/mL
Cmax [5]: 787 ng/mL
Cmax [6]: 7220 ng/mL
Cp (Homo sapiens [7]): 1582 ng/mL
Cp (Homo sapiens [8]): 543 ng/mL
Structure (SMILES): COC(=O)N[C@H](C(=O)N[C@@H](Cc1ccccc1)[C@@H](O)CN(Cc1ccc(-c2ccccn2)cc1)NC(=O)[C@@H](NC(=O)OC)C(C)(C)C)C(C)(C)C [ATAZANAVIR]
